# Experimental data from article PMC5478869, “New Hydroxycinnamic Acid Esters as Novel 5-Lipoxygenase Inhibitors That Affect Leukotriene Biosynthesis” (Mediators of Inflammation, 2017).
# Test system: arachidonic acid release
# Test: Arachidonic acid release from thapsigargin-stimulated PMNL (GC-MS)
# Type: cell-based, human
# Settings: 1 μM compound, 1 μM thapsigargin 5 min, vs control (0.5% DMSO)
# Method: Quantification of arachidonic acid release from cellular membranes was performed as previously described. Briefly, freshly isolated PMNL (10^7 cells/ml, in HBSS containing 1.6 mM CaCl2 and 0.1% BSA) were incubated with adenosine deaminase (0.3 U/ml) and test compounds for 5 min at 37°C. Stimulation was initiated with the addition of 1 μM thapsigargin, followed by incubation at 37°C for 5 min. The reactions were stopped with the addition of two volumes of cold MeOH and 300 ng of arachidonic acid-d8 (Cayman Chemicals) as internal standard. The samples were stored at −20°C overnight and then centrifuged the next day at 1000 g for 10 min. The supernatants were diluted with four volumes of acidified water (0.1%) then processed on an octadecyl (C18) column. Samples were eluted with the addition of 3 ml of MeOH and dried under nitrogen. Pentafluorobenzylesters were prepared with the addition 50 μl N,N-diisopropylethylamine (20% in acetonitrile) and 50 μl of […] (20% in acetonitrile). Samples were heated for 40 min at 40°C, then dried under nitrogen and resuspended in 100 μl of hexane. Samples were quantified by negative ion chemical ionization gas chromatography/mass spectrometry using TraceGC ultra column (Thermo) and a Polaris Q mass spectrometer (Thermo).
# Figure 4 The impact of test compounds on the liberation of arachidonic acid in stimulated PMNL. Human PMNL were incubated with test compounds (1 μM) or their diluent (control, DMSO 0.5%) for 5 min. Stimulation was then initiated with the addition of 1 μM thapsigargin, followed by an incubation at 37°C for 5 min. The reactions were stopped with the addition of two volumes of cold MeOH and 300 ng of arachidonic acid-d8, then samples were stored overnight at −20°C. Free arachidonic acid was first extracted on octadecyl columns, then pentafluorobenzylesters of arachidonic acid were prepared and samples were measured on GC-MS. Spontaneous release of AA was also measured in absence of thapsigargin (nonactivated, NA). ^∗Different from control as determined by one-way ANOVA with Dunnett's multiple comparison test (p < 0.05). Data are expressed as means ± SEM of at least 3 independent experiments.
row,Compound,Inhibition of cellular arachidonic acid release in stimulated PMNL
1,C=C(C)CCOC(=O)/C=C/c1ccc(O)c(O)c1 [Compound 9],significantly inhibited cellular arachidonic acid release
2,"O=C(/C=C/c1ccc(O)c(O)c1)OCCc1ccccc1 [CAPE (2), Caffeic acid phenethyl ester, reference compound]",significantly inhibited cellular arachidonic acid release
3,O=C(/C=C/c1ccc(O)c(O)c1)OCCc1ccc(F)cc1 [Compound 14],failed to significantly inhibit the release of cellular membrane arachidonic acid
4,COc1ccc(CCOC(=O)/C=C/c2ccc(O)c(O)c2)cc1 [Compound 16],failed to significantly inhibit the release of cellular membrane arachidonic acid
5,Cc1ccc(CCOC(=O)/C=C/c2ccc(O)c(O)c2)cc1 [Compound 15],failed to significantly inhibit the release of cellular membrane arachidonic acid
6,O=C(/C=C/c1ccc(O)c(O)c1)OCCCc1ccccc1 [Compound 13],significantly inhibited cellular arachidonic acid release
7,O=C(/C=C/c1ccc(O)c(O)c1)OCC(c1ccccc1)c1ccccc1 [Compound 19],significantly inhibited cellular arachidonic acid release
